This is an account of results in publication PMC11945486, “TAS1R2/TAS1R3 Single-Nucleotide Polymorphisms Affect Sweet Taste Receptor Activation by Sweeteners: The SWEET Project” (Nutrients, 2025).

Where two headings read alike, the source gives them in different places. No end group written: not given here.

The target of the experiment is T1, human TAS1R2-WT/TAS1R3-S446N (Homo sapiens, UniProt Q7RTX0+Q8TE23, S446N).
T1 construct: expressed in transfected cells; host or cells: HEK293T stably expressing Gα16gust44
T1 sequence (Q8TE23 20-839): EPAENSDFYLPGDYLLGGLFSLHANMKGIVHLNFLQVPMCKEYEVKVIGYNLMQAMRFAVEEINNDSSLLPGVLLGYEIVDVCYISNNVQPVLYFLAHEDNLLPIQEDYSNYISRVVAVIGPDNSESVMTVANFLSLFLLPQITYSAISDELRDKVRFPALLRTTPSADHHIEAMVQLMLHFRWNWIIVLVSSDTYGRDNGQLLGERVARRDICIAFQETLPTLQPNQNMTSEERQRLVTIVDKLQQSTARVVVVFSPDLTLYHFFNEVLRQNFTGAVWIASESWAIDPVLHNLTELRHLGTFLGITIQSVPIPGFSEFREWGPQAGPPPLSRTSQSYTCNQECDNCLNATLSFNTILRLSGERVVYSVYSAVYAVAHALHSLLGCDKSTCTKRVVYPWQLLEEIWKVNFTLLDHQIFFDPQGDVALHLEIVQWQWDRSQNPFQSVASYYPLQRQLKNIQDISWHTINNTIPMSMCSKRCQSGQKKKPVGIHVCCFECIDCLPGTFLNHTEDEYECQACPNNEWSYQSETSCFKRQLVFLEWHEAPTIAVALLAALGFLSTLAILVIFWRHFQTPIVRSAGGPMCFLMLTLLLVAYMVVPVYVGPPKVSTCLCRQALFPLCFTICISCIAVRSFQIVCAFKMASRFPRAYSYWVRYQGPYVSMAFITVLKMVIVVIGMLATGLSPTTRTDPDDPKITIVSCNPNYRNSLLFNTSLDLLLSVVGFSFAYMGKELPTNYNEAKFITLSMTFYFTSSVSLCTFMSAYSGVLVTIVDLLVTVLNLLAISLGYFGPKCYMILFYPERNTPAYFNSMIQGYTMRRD
T1 sequence (Q7RTX0 21-852 S446N): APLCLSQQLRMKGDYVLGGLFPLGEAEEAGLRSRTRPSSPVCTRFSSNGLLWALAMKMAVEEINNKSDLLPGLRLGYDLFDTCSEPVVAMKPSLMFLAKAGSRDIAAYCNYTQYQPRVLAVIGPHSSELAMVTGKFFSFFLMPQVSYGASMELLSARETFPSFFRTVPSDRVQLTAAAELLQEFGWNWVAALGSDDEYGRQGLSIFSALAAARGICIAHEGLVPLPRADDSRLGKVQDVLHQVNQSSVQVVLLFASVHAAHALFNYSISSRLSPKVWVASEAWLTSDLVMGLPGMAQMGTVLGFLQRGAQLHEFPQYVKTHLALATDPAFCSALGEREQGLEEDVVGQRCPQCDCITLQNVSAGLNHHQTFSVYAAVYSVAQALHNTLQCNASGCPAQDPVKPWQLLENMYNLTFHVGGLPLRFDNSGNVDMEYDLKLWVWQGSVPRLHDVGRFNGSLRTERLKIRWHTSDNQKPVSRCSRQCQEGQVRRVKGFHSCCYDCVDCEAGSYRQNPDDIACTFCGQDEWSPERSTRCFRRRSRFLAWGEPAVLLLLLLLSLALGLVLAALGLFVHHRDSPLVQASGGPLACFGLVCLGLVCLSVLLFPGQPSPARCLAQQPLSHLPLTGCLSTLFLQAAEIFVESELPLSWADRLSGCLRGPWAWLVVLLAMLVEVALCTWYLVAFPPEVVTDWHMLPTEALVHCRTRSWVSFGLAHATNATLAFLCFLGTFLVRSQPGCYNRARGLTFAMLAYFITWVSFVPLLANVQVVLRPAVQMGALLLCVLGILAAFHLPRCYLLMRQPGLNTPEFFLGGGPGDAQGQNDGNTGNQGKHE
In words: Calcium mobilisation assay, TAS1R2-WT with TAS1R3 variant S446N. The conditions noted are these: for Max ΔF/F0: maximal signal amplitude. The class given is cell-based. From the text:
The coding sequences for TAS1R2 and TAS1R3 were commercially synthesised, and the human codon was optimised for expression in human cells. The coding sequences of human TAS1R2 and TAS1R3 were subcloned and inserted into the mammalian expression vectors pcDNA6/myc-HisA and pcDNA4/myc-HisA (Invitrogen; Thermo Fisher Scientific; Illkirch, France) between the EcoRI and NotI restriction sites, generating the plasmids pcDNA6-TAS1R2 and pcDNA4-TAS1R3, respectively. To increase protein expression in mammalian cells, an upstream start codon was used, which was a sequence called MAX, corresponding to the QBI SP163 element also described in pcDNA4-HisMax (Invitrogen; Thermo Fisher Scientific; Illkirch, France). To measure the expression level of the receptor by immunohistochemistry, we used the FLAG sequence ([…]) in the C-terminal position, which encodes the FLAG tag epitope. SNP variants of TAS1R2 and TAS1R3 were constructed based on […], respectively, using site-directed mutagenesis (Genewiz; Leipzig, Germany).
The HEK293T cells were kindly provided by Jay P. Slack (Givaudan Flavors Corporation; Cincinnati, OH, USA). HEK293T cells stably transfected with Gα16gust44 [43, 67] were seeded in poly-D-lysine-coated clear-bottom black 96-well plates (0.35 × 10^5 cells/well) in high-glucose DMEM supplemented with 2 mM GlutaMAX, 10% dialysed foetal bovine serum with penicillin/streptomycin and G418 (400 μg/mL) at 37 °C and 6.3% CO2 in a humidified atmosphere as previously reported. […] As a negative control, HEK293T cells were mock-transfected with the empty expression vector. After a further 24 h of incubation, the HEK293T cells were washed with C1 buffer (130 mM NaCl, 5 mM KCl, 10 mM HEPES pH 7.4 and 2 mM CaCl2). The 96-well plates containing the cells were then stimulated with sweet-tasting compounds. […] Different concentration ranges were tested depending on the sweet compound injected. The Ca^2+ changes were expressed as fractional changes in fluorescent light intensity: ΔF/F = (F − F0)/F0, where F was the fluorescent light intensity at each point, and F0 was the value of emitted fluorescent light prior to stimulus application. To calculate dose–response relationships, the changes in fluorescence upon stimulus application were averaged, mock-subtracted and baseline-corrected. The dose–response data obtained were adjusted using a 4-parameter logistic equation. The half-maximal effective concentrations (EC50 values) and maximal signal amplitudes were calculated using SigmaPlot software (version 15.0) (Systat Software; San Jose, CA, USA).
For in vitro calcium mobilisation assay performed on hTAS1R2-SNPs, hTAS1R3-SNPs and mTAS1R3-I60T, 6 to 7 concentrations were tested for each sweet compound, plus buffer alone. All concentration–receptor combinations were measured in duplicate, and each experiment was repeated at least 4 times (8 wells/concentration). Results were expressed for each concentration as ΔF/F mean ± SEM and represented as dose–response curves.
(Calcium flux is commonly read through the fluorescence of an indicator in the cells.)

The EC50 is the concentration giving half of the maximal effect. On to `OC[C@H]1O[C@H](O[C@]2(CCl)O[C@H](CCl)[C@@H](O)[C@@H]2O)[C@H](O)[C@@H](O)[C@H]1Cl` [Sucralose], for which the “R1 = Variant EC50/WT EC50” value is 1.4 and the “Max ΔF/F0” value was 0.68 ± 0.02. Besides, the EC50 (read-out: EC50) worked out at 155 ± 11 µM.
In the same order, the values of `C[C@H](CC[C@@H](O[C@@H]1O[C@H](CO[C@@H]2O[C@H](CO)[C@@H](O)[C@H](O)[C@H]2O)[C@@H](O)[C@H](O)[C@H]1O[C@@H]1O[C@H](CO)[C@@H](O)[C@H](O)[C@H]1O)C(C)(C)O)[C@H]1CC[C@@]2(C)[C@@H]3CC=C4[C@@H](CC[C@H](O[C@@H]5O[C@H](CO[C@@H]6O[C@H](CO)[C@@H](O)[C@H](O)[C@H]6O)[C@@H](O)[C@H](O)[C@H]5O)C4(C)C)[C@]3(C)[C@H](O)C[C@]12C` [Mogroside V, mogroside V] are 1.5, 0.86 ± 0.01 and 47.7 ± 1.5 µM.
In the same order, the values of `COC(=O)[C@H](Cc1ccccc1)NC(=O)[C@H](CC(=O)O)NCCC(C)(C)C` [Neotame] are 1.0, 0.63 ± 0.02 and 1.22 ± 0.1 µM.
Take “brazzein (QDKCKKVYENYPVSKCQLANQCNYDCKLDKHARSGECFYDEKRNLQCICDYCEY; ends and bridges not checked; cysteine pairing not given here; UniProt P56552 1-54, looked up) [sweet-tasting protein obtained by recombinant production using the yeast Pichia pastoris]”: the “R1 = Variant EC50/WT EC50” value came out at 1.1 and the “Max ΔF/F0” value came out at 0.98 ± 0.03. The EC50 (brazzein) came to 120.8 ± 9.3 µg/mL.
With `C=C(C)[C@@H]1CC=C(/C=N/O)CC1` [Perillartine, perillartine], the “R1 = Variant EC50/WT EC50” value is listed as 1.1 and the “Max ΔF/F0” value is recorded as 1.42 ± 0.26. In addition, the EC50 (read-out: EC50) was 15.3 ± 8.6 µM.
On the same counts, the results for `CC1=CC(=O)NS(=O)(=O)O1` [Acesulfame K, acesulfame K] are 0.8, 0.19 ± 0.01 and 487 ± 78 µM.
With `C=C1C[C@@]23CC[C@H]4[C@@](C)(CCC[C@@]4(C)C(=O)O[C@@H]4O[C@H](CO)[C@@H](O)[C@H](O[C@@H]5O[C@H](CO)[C@@H](O)[C@H](O)[C@H]5O)[C@H]4O[C@@H]4O[C@H](CO)[C@@H](O)[C@H](O)[C@H]4O)[C@@H]2CC[C@]1(O[C@@H]1O[C@H](CO)[C@@H](O)[C@H](O[C@@H]2O[C@H](CO)[C@@H](O)[C@H](O)[C@H]2O)[C@H]1O[C@@H]1O[C@H](CO)[C@@H](O)[C@H](O)[C@H]1O)C3` [Rebaudioside M, rebaudioside M], the “R1 = Variant EC50/WT EC50” value turned out to be 0.9 and the “Max ΔF/F0” value was 0.64 ± 0.03. The half-maximal effective concentration (EC50) (read-out: EC50) is 36.9 ± 3.6 µM.
`O=S(=O)(O)NC1CCCCC1` [Cyclamate, cyclamate]: where the note is “read-out: EC50”, the EC50 is 1480 ± 45 µM.
As for `COc1ccc(CCC(=O)c2c(O)cc(O[C@@H]3O[C@H](CO)[C@@H](O)[C@H](O)[C@H]3O[C@@H]3O[C@@H](C)[C@H](O)[C@@H](O)[C@H]3O)cc2O)cc1O` [NHDC, neohesperidin dihydrochalcone], the “R1 = Variant EC50/WT EC50” value is given as 1.0 and the “Max ΔF/F0” value is on record as 1.07 ± 0.06. For the same molecule, the concentration for a half-maximal effect (EC50) (read-out: EC50) stood at 49.4 ± 8.6 µM.
Consider thaumatin, for which the “R1 = Variant EC50/WT EC50” value was determined as 0.9 and the “Max ΔF/F0” value was 0.70 ± 0.04.

B1: thaumatin (protein)
chain: ATFEIVNRCSYTVWAAASKGDAALDAGGRQLNSGESWTINVEPGTKGGKIWARTDCYFDDSGSGICKTGDCGGLLRCKRFGRPPTTLAEFSLNQYGKDYIDISNIKGFNVPMDFSPTTRGCRGVRCAADIVGQCPAKLKAPGGGCNDACTVFQTSEYCCTTGKCGPTEYSRFFKRLCPDAFSYVLDKPTTVTCPGSSNYRVTFCPTA
modifications: Eight disulfides
notes: sweet-tasting plant protein, E957
Take B1: the EC50 (read-out: EC50) turned out to be 9.8 ± 1.1 µM.
